Assay results taken from patent publication US9233117B2, “Treatment of inflammatory lesions of rosacea with ivermectin” (Galderma S.A., priority 2013, dated 2016).
“And” between values parts separate entries of the source, which are not always exact repeats. Equal entries are not always repeated.

Experiments:
subjects with PPR = assay: Study 1 and Study 2: once-daily ivermectin 1% cream vs vehicle in moderate to severe PPR (Example 3); assay type: in vivo, human
Protocol: Both studies were conducted in accordance with the ethical principles of the Declaration of Helsinki and Good Clinical Practices, and in compliance with local regulatory requirements.
Each study had three parts. In the first part of the study, subjects with PPR were treated with ivermectin 1% cream (IVM 1%) or vehicle once daily at bedtime for 12 weeks. In the second part of the study, subjects initially treated with IVM 1% once daily at bedtime continued the same treatment, while subjects treated with the vehicle once daily switched to topical treatment with azelaic acid 15% gel twice daily, in the morning and evening. The third part of the study consisted of 4 weeks safety follow-up, without treatment.
Eligible subjects were 18 years or older, with moderate or severe papulopustular rosacea as noted by an IGA of 3 (“several small or large papules/pustules, moderate erythema”) or 4 (“numerous small and/or large papules/pustules, severe erythema”), and presenting with 15-70 facial inflammatory lesions (papules and pustules). […]
Efficacy assessments at each visit were the IGA of disease severity, and inflammatory lesion counts (papules and pustules) on each of the five facial regions (forehead, chin, nose, right cheek, left cheek). Safety assessments included adverse events (AEs) throughout the study, local tolerance parameters (stinging/burning, dryness, itching) at each study visit evaluated on a 4-point scale [from 0 (none) to 3 (severe)], and laboratory parameters (hematology and biochemistry) measured before and after treatment. […]
The co-primary efficacy endpoints in both studies were the success rate based on the IGA outcome and absolute change from baseline in inflammatory lesion counts at the end of week 12 of the studies. The success rate based on IGA score [% of subjects who achieved “clear” or “almost clear” ratings on the IGA scale at week 12 (ITT-LOCF)] was analyzed by the Cochran-Mantel-Haenszel (CMH) test stratified by analysis site, using the general association statistic. […]

[1] = Plasma pharmacokinetic study of ivermectin 1% cream in subjects with severe PPR (Example 5); assay type: in vivo, human
Protocol: A multi-center, open-label, single treatment study was conducted to assess the pharmacokinetic (PK) profile of ivermectin 1% (w/w) cream in subjects with severe PPR. A maximized dose of about 2 mg/cm^2 (1 g of ivermectin 1% (w/w) cream, equivalent to 10 mg ivermectin per application) was applied to the face once daily for 4 weeks. The treatment was followed by a 28-Day follow-up period.
A total of seventeen subjects received at least one dose of treatment. All subjects provided PK parameters at some time points, but fifteen (9 females and 6 males) provided full PK profiles at Days 0, 14 and 28.
Blood samples for determination of ivermectin levels in plasma were taken from all subjects before application on Days 0, 7, 14, 21 and 28 (pre-dose samples corresponding to Cmin). Additional blood samples were taken on Days 0, 14 and 28 at 1, 3, 6, 9 and 12 hours after application. At, the end of the 28-Day treatment, blood samples were taken on Days 29, 30, 32, 35, 38, 42, 49 and 56 during the follow-up period. The plasma was isolated and frozen (−20° C.) pending analysis.
The pharmacokinetic analysis was performed. From the individual plasma concentrations, the pharmacokinetic parameters were determined by non-compartmental method Kinetica™ sofware, version 4.3, InnaPhase Corporation, Philadelphia, USA).
AUC0-24 H was calculated by the mixed linear-logarithmic trapezoidal method at Day 0, 14 and 28. BLQ was imputed as zero in the individual PK profile.
During the follow up period, the following parameters were measured: • (1) AUC0-t: Area under the concentration-time curve calculated by the mixed linear-logarithmic trapezoidal method from T0 up to the sampling time corresponding to the last quantifiable concentration (Clast); • (2) Kel: The elimination rate constant value (kel) was obtained by linear regression of log-linear terminal phase of concentration-time profile using at least 3 data points, excluding Cmax, otherwise kel was not determined. The acceptability criteria for determination of kel was a coefficient of regression more or equal to 0.98. When kel was not determined, AUC0-inf and t½ were not reported; • (3) t½: The terminal half-life value (t½) was calculated using the equation ln2/kel; • (4) AUC0-inf: Area under the plasma concentration-time curve calculated by the mixed linear-logarithmic trapezoidal method from T0 and extrapolated to time infinity as: AUC0-inf=AUC0-t+Clast/kel.
When the extrapolation represented more than 20%, AUC0-inf and t1/2 […]. Mean values, standard deviation (SD), lowest individual value (Min), maximal individual value (Max) and coefficient of variation (CV) were calculated and reported on each variables (Arithmetic mean for AUC, Cmax, Tmax and harmonic mean for t1/2). Conversely to the protocol, the standard error of mean (SEM) were not calculated and not reported. In addition a statistical analysis was performed on ivermectin specific parameters (including the accumulation ratios).

[2] = orally administered; cited from earlier work

With ivermectin as the substance, how does the “plasma accumulation of ivermectin” value (subjects with PPR; 52-week treatment period (Phase 3 study)) read?
Its value is “no plasma accumulation”.

What about the “median reduction from baseline in inflammatory lesion counts” value (subjects with PPR; Study 1, week 2) of the same substance?
The value was “about 30%”.

And the “median reduction from baseline in inflammatory lesion counts” value (subjects with PPR; Study 2, week 2)?
Its value is 27.3%.

And the “AUC0-24 H, Min-Max” value ([1]; Day 0)?
Its value is “[3.16-21.28] ng · h/mL”.

What about the “AUC0-24 H, mean ± SD” value ([1]; Day 0) of the same substance?
Its value is 9.29 ± 5.40 ng·h/mL.

And the “Pre-dose/Cmin, Min-Max” value ([1]; Day 0)?
The value was “[0.17-0.86] ng/mL”.

And the “Tmax, Min-Max” value ([1]; Day 0)?
The value was “[1-24] h”.

What about the “Pre-dose/Cmin, mean ± SD” value ([1]; Day 0 (24 hours after D0), plasma, 1 g ivermectin 1% cream on the face once daily) of the same substance?
Its value is 0.37 ng/mL and 0.37 ± 0.21^(a) ng/mL.

And the “Cmax, mean ± SD” value ([1]; Day 0 (single topical application))?
The value was 0.69 ng/mL.

What about the “Pre-dose/Cmin, Min-Max” value ([1]; Day 7) of the same substance?
Its value is “[0.56-3.26] ng/mL”.

And the “Pre-dose/Cmin, mean ± SD” value ([1]; Day 7, plasma, ivermectin 1% cream once daily)?
The value was 1.17 ± 0.88 ng/mL.

And the “Pre-dose/Cmin, Min-Max” value ([1]; Day 14)?
The value was “[0.58-2.34] ng/mL”.

What about the “Tmax, Min-Max” value ([1]; Day 14) of the same substance?
The value was “[0-24] h”.

What about the “AUC0-24 H, mean ± SD” value ([1]; Day 14 (steady state)) of the same substance?
Its value is 36.14 ± 15.56 ng·h/mL.

What about the “Cmax, mean ± SD” value ([1]; Day 14 (steady state)) of the same substance?
The value was 2.10 ± 1.04 ng/mL.

And the “Tmax, mean ± SD” value ([1]; Day 14 (steady state))?
Its value is 10 ± 8 h.

What about the “Pre-dose/Cmin, mean ± SD” value ([1]; Day 14, plasma, ivermectin 1% cream once daily) of the same substance?
The value was 1.26±0.53 ng/mL and 1.26 ± 0.53^(c) ng/mL.

And the “Pre-dose/Cmin, Min-Max” value ([1]; Day 21)?
The value was “[0.66-3.25] ng/mL”.

And the “Pre-dose/Cmin, mean ± SD” value ([1]; Day 21, plasma, ivermectin 1% cream once daily)?
The value was 1.36±0.66 ng/mL and 1.36 ± 0.66^(c) ng/mL.

And the “AUC0-24 H, mean ± SD” value ([1]; Day 28)?
The value was 35.43 ± 14.42 ng·h/mL.

What about the “Cmax, Min-Max” value ([1]; Day 28) of the same substance?
The value was “[0.58-3.36] ng/mL”.

What about the “Cmax, mean ± SD” value ([1]; Day 28) of the same substance?
Its value is 1.74 ± 0.77 ng/mL.

What about the “Pre-dose/Cmin, Min-Max” value ([1]; Day 28) of the same substance?
The value was “[0.53-3.00] ng/mL”.

What about the “Tmax, Min-Max” value ([1]; Day 28) of the same substance?
Its value is “[3-24] h”.

And the “Tmax, mean ± SD” value ([1]; Day 28)?
The value was 11 ± 4 h.

What about the “total systemic exposure (AUC0-inf)” value ([1]; Day 28) of the same substance?
Its value is 312 ± 173 ng·h/mL.

And the “Pre-dose/Cmin, mean ± SD” value ([1]; Day 28, plasma, ivermectin 1% cream once daily)?
Its value is 1.36 ± 0.63 ng/mL.

And the “time of last quantifiable concentration after application” value ([1]; after Day 28)?
The value was “approximately 24 days”.

And the “apparent terminal half-life, range” value ([1]; after the last topical application (Day 28), 14 subjects)?
Its value is 92 to 238 h.

What about the “relative bioavailability vs oral administration of ivermectin” value ([1]; steady state, topical) of the same substance?
Its value is 16%.

What about the “t1/2, typical” value [2] of the same substance?
The value was “around 18 hours”.
